In ChEMBL document CHEMBL5241068, “Biguanides: Species with versatile therapeutic applications” (Eur J Med Chem, 2021):

Key:
[1] = Lipophilicity, logP of the compound; format: physicochemical; settings: octanol/water
[2] = system: IGROV-1; assay: Antiproliferative activity against human IGROV-1 cells incubated for 72 hrs by MTT assay; format: functional, cell-based; settings: IGROV-1, 72 h
[3] = target: Replicase polyprotein 1ab (Severe acute respiratory syndrome coronavirus 2) (UniProt P0DTD1); assay: Binding affinity to SARS CoV-2 3CL protease assessed as gibbs free energy change
[4] = system: MDA-MB-231; assay: Antiproliferative activity against human MDA-MB-231 cells in presence of phenformin; format: functional, cell-based
[5] = system: T47D; assay: Antiproliferative activity against human T47D cells in presence of phenformin; format: functional, cell-based
[6] = system: SK-OV-3; assay: Antiproliferative activity against human SK-OV-3 cells incubated for 72 hrs by MTT assay; format: functional, cell-based; settings: SK-OV-3, 72 h
[7] = Inhibition of Brugia malayi DHFR
[8] = system: A2780; assay: Antiproliferative activity against human A2780 cells; format: functional, cell-based
[9] = Inhibition of quorum sensing system in Chromobacterium violaceum CV12472
[10] = Selectivity index, ratio of IC50 for rat liver DHFR to IC50 for Toxoplasma gondii DHFR
[11] = Inhibition of Toxoplasma gondii DHFR
[12] = Cmax in mouse at 1 mg/kg, po; format: ADME, organism-based; set-up: dose 1 mg/kg, route po; settings: in vivo
[13] = Elimination half life in mouse at 1 mg/kg, po; format: ADME, organism-based; settings: in vivo, read-out: beta t1/2 (converted)
[14] = Solubility of compound at pH 8; format: physicochemical; settings: buffer
[15] = system: Escherichia coli; assay: Bactericidal activity against Escherichia coli assessed as time required to kill the bacteria at 95 uM; format: functional
[16] = system: FaDu; assay: Anticancer activity against human FaDu cells; format: functional, cell-based
[17] = system: C6661; assay: Anticancer activity against human C6661 cells; format: functional, cell-based

## N=C(NCCCCCCCCCCCCNC(=N)Nc1ncc(Cl)cn1)Nc1ncc(Cl)cn1
[1]
  logP: 5.5

## CN(C)C(=N)NC(=N)N [METFORMIN]
[2]
  IC50: 850 µM
[3]
  deltaG: -6.72 kcal/mol
[4]
  IC50: 4010 µM
[5]
  IC50: 9400 µM
[6]
  IC50: 150 µM

## NC(N)=N/C(N)=N/c1ccc(OCc2cccc(Cl)c2)cc1
[7]
  IC50: 16.7 µM

## COc1cc(Cc2cnc(N)nc2N)cc(OC)c1OC [TRIMETHOPRIM]
[7]
  IC50: 12.9 µM

## NC(N)=N/C(N)=N/c1ccc(OCc2ccc(-c3ccccc3)cc2)cc1
[7]
  IC50: < 5.83 µM

## NC(N)=N/C(N)=N/CCOc1ccn(-c2ccc(Cl)cc2)n1
[8]
  IC50: 6.9 µM

## N=C(N=C(N)N)N(c1ccccc1)c1ccc(N)cc1
[9]
  IC50: 120 µM

## CC1(C)N=C(N)N=C(N)N1c1ccc(OCc2ccc(-c3ccccc3)cc2)cc1
[10]
  Ratio IC50: 2.15
[11]
  IC50: 0.012 µM

## N=C(NCCCCCCCCCCNC(=N)Nc1ncc(Cl)cn1)Nc1ncc(Cl)cn1
[1]
  logP: 5.5

## NC(N)=N/C(N)=N/c1ccc(OCc2ccc(Cl)cc2Cl)cc1
[7]
  IC50: 6.31 µM

## NC(N)=N/C(N)=N/Cc1ccco1
[2]
  IC50: 150 µM
[6]
  IC50: 380 µM

## CN(C)C(=N)N=C(N)N [METFORMIN]
[12]
  Cmax: 2000 ng/mL
[13]
  half-life: 6 h

## Clc1ccc(Nc2ccnc(Nc3ccc(Cl)cc3)n2)cc1
[1]
  logP: 5.5

## Cl.N=C(N)NC(=N)N1CCOCC1
[3]
  deltaG: -2.11 kcal/mol
[14]
  solubility: 360 mg/mL

## N=C(N=C(N)N)N(Cc1ccccc1)c1ccccc1
[9]
  IC50: 179 µM

## C=CC(=O)OCCc1ccc(/N=C(N)/N=C(\N)Nc2ccc(Cl)cc2)cc1.Cl
[15]
  Time: 30 min

## CC1(C)N=C(N)N=C(N)N1c1ccc(OCc2ccc(Cl)cc2Cl)cc1
[7]
  IC50: 5.73 µM

## CCc1nc(N)nc(N)c1-c1ccc(Cl)cc1 [PYRIMETHAMINE]
[7]
  IC50: 20.1 µM

## CCCC[C@@H](CC)CNC(=N)NC(=N)NCCCCCCNC(=N)NC(=N)NC[C@H](CC)CCCC
[16]
  EC50: 1.8 µM
[17]
  EC50: 2.6 µM
